GI50 and TGI data for eight molecules are collected here from PubChem BioAssay (NCI).

Among the test systems are MCF7 breast; LOX IMVI melanoma; BT-549 breast; A498 renal; ACHN renal; CAKI-1 renal; EKVX NSCLC; TK-10 renal; MDA-MB-435; CCRF-CEM leukemia.
Common to all, as to assay: NCI tumour cell line growth inhibition, 48 h

Each structure is given as a SMILES string.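 Briefly, cells in 96-well plates were exposed to five compound concentrations for 48 h, and endpoints were estimated by linear interpolation. GI50 = concentration required for 50% inhibition of growth. The concentration for full growth arrest is given as TGI.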

Take `CCCCCc1c(C)[nH]c(/C=C2\N=C(c3ccc[nH]3)C=C2CC)c1C`: the GI50 with MCF7 breast was 20.8 nM; in the experiment on LOX IMVI melanoma, under 10 nM; in the experiment on BT-549 breast it was 14.5 nM; in the experiment on A498 renal, under 22.8 nM; in the experiment on ACHN renal it was 0.0225 µM; in the experiment on CAKI-1 renal, 19.1 nM. In addition, the GI50 in the experiment with EKVX NSCLC was 21.6 nM; in the experiment on TK-10 renal, under 15.5 nM; with MDA-MB-435 it was under 10 nM. Besides, the TGI in the experiment with MCF7 breast was 0.106 µM; in the experiment on BT-549 breast, 0.17 µM; in the experiment on A498 renal, 0.267 µM; in the experiment with ACHN renal, 0.189 µM; in the experiment on CAKI-1 renal, 0.214 µM; in the experiment on EKVX NSCLC it was 0.364 µM. In addition, the values for the TGI in the experiment with TK-10 renal and with MDA-MB-435 were 0.166 µM and 0.108 µM, respectively.

With `CN(C)c1ccc2nc3ccc(=O)cc-3sc2c1`, the GI50 in the experiment on MCF7 breast is 445 nM; in the experiment with LOX IMVI melanoma it was 633 nM; with BT-549 breast, 712 nM; in the experiment with A498 renal, 11000 nM; with ACHN renal it was 0.274 µM; in the experiment with CAKI-1 renal it was 2240 nM. Further, the GI50 in the experiment on CCRF-CEM leukemia was 694 nM; in the experiment on TK-10 renal, 13800 nM; in the experiment on MDA-MB-435 it was 310 nM. In addition, the TGI with MCF7 breast was 5.75 µM; in the experiment on LOX IMVI melanoma, over 63.8 µM; in the experiment with BT-549 breast, over 100 µM; with A498 renal, over 92.8 µM; with ACHN renal it was over 49.1 µM; with CAKI-1 renal it was over 90.7 µM. In addition, the TGI in the experiment with CCRF-CEM leukemia was 58.1 µM; with TK-10 renal, over 77.7 µM; in the experiment on MDA-MB-435, 0.985 µM.

Take `CN1CCc2c(Sc3ccc(C(=O)NO)cc3)c3ccccc3n2C1`: the GI50 with MCF7 breast was 2700 nM; with LOX IMVI melanoma, 1640 nM; in the experiment with BT-549 breast, 2390 nM; in the experiment with A498 renal, 185 nM; in the experiment on ACHN renal, 3.04 µM; in the experiment on CAKI-1 renal, 3950 nM. The values for the GI50 with CCRF-CEM leukemia, in the experiment with TK-10 renal and in the experiment with MDA-MB-435 were 1870 nM, 2620 nM and 1610 nM, respectively. The TGI was 13.6 µM with MCF7 breast; 3.57 µM in the experiment with LOX IMVI melanoma; 6.19 µM with BT-549 breast; 2.44 µM with A498 renal; 12.6 µM with ACHN renal; 14.5 µM with CAKI-1 renal. Also, the TGI is over 24.9 µM with CCRF-CEM leukemia, 8.19 µM with TK-10 renal and 3.34 µM in the experiment with MDA-MB-435.

With `COC(=O)[C@@H](NC(=O)[C@@H](OC)[C@@H]1Cc2cc3cc(OC4CC(OC5CC(O)C(O)C(C)O5)C(O)C(C)O4)c(C)c(O)c3c(O)c2C(=O)[C@H]1OC1CC(OC2CC(OC3CC(C)(O)C(O)C(C)O3)C(O)C(C)O2)C(O)C(C)O1)C(C)C` (stereo not given in full), the GI50 in the experiment with MCF7 breast is 53.8 nM; in the experiment on BT-549 breast, 184 nM; in the experiment with A498 renal, 86.9 nM; in the experiment with ACHN renal it was 0.0956 µM; in the experiment with CAKI-1 renal, 107 nM; in the experiment with EKVX NSCLC, 162 nM. Besides, the GI50 is 122 nM in the experiment with CCRF-CEM leukemia, 208 nM with TK-10 renal and 130 nM in the experiment on MDA-MB-435. Moreover, the TGI in the experiment on MCF7 breast was over 32.5 µM; with BT-549 breast, 2.63 µM; in the experiment on A498 renal, 0.333 µM; in the experiment on ACHN renal, 3.7 µM; in the experiment with CAKI-1 renal, 1.67 µM; in the experiment on EKVX NSCLC, over 32.5 µM. Besides, the TGI in the experiment with CCRF-CEM leukemia, with TK-10 renal and with MDA-MB-435 was over 32.5 µM throughout.

On to `Cc1n(Cc2ccc3ccccc3c2)cc[n+]1Cc1ccc2ccccc2c1`, for which the GI50 was 1100 nM in the experiment on MCF7 breast; 951 nM in the experiment on LOX IMVI melanoma; 929 nM in the experiment with BT-549 breast; 470 nM in the experiment with A498 renal; 10.9 µM in the experiment on ACHN renal; 2320 nM with EKVX NSCLC. Also, the GI50 was 1870 nM with CCRF-CEM leukemia, 1770 nM in the experiment on TK-10 renal and 544 nM with MDA-MB-435. Further, the TGI is 3.33 µM with MCF7 breast; 2.2 µM in the experiment on LOX IMVI melanoma; 3.01 µM in the experiment with BT-549 breast; 4.61 µM in the experiment with A498 renal; 23.8 µM in the experiment on ACHN renal; 17.1 µM in the experiment with EKVX NSCLC. For the same molecule, the TGI turned out to be 7.19 µM in the experiment with CCRF-CEM leukemia, 5.1 µM in the experiment on TK-10 renal and 2.38 µM with MDA-MB-435.

Regarding `CCN(CC)CCNCC(=O)Oc1ccc(/C=C/C(=O)CC(=O)/C=C/c2ccc(OC(=O)CNCCN(CC)CC)c(OC)c2)cc1OC`, the GI50 with MCF7 breast is 2580 nM; in the experiment with LOX IMVI melanoma it was 2130 nM; in the experiment with BT-549 breast it was 2290 nM; in the experiment on A498 renal, 3340 nM; in the experiment on ACHN renal, 5.28 µM; with CAKI-1 renal it was 3200 nM. In addition, the GI50 with EKVX NSCLC was 2010 nM; with TK-10 renal it was 6720 nM; in the experiment with MDA-MB-435 it was 2480 nM. Besides, the TGI was found to be 18 µM with MCF7 breast; 4.71 µM in the experiment with LOX IMVI melanoma; 5.95 µM in the experiment with BT-549 breast; 11.6 µM with A498 renal; 20.8 µM with ACHN renal; 15.8 µM in the experiment with CAKI-1 renal. In addition, the TGI with EKVX NSCLC is 5.4 µM; in the experiment on TK-10 renal, 23.5 µM; in the experiment with MDA-MB-435, 12.4 µM.

For the molecule `Cc1c[n+](Cc2ccc3ccccc3c2)cn1Cc1ccc2ccccc2c1`, the GI50 is 1670 nM in the experiment with MCF7 breast; 1340 nM in the experiment with LOX IMVI melanoma; 1560 nM in the experiment with BT-549 breast; 954 nM in the experiment on A498 renal; 5.41 µM in the experiment with ACHN renal; 2150 nM in the experiment with EKVX NSCLC. In addition, the results for the GI50 in the experiment on CCRF-CEM leukemia, in the experiment on TK-10 renal and with MDA-MB-435 were 2450 nM, 1820 nM and 1280 nM, respectively. Moreover, the TGI came to 3.5 µM with MCF7 breast; 2.7 µM with LOX IMVI melanoma; 3.12 µM with BT-549 breast; 4.29 µM with A498 renal; 19.4 µM with ACHN renal; 9.71 µM with EKVX NSCLC. Further, the TGI with CCRF-CEM leukemia came out at 5.71 µM; in the experiment with TK-10 renal, 3.73 µM; in the experiment on MDA-MB-435, 3.03 µM.

Take `CCOC(=O)C1=C(C)N(N)C(=S)NC1c1ccc(C)cc1` (stereo not given): the GI50 was 16000 nM in the experiment on MCF7 breast; 9190 nM in the experiment with LOX IMVI melanoma; 11200 nM in the experiment on A498 renal; 22.6 µM in the experiment on ACHN renal; 49800 nM in the experiment with CCRF-CEM leukemia; 40200 nM in the experiment with TK-10 renal. Also, in the experiment with MDA-MB-435, the GI50 is 14800 nM. For the same molecule, the TGI with MCF7 breast is 73.6 µM; in the experiment with LOX IMVI melanoma, over 100 µM; in the experiment with BT-549 breast, 9.16 µM; in the experiment with A498 renal, over 100 µM; in the experiment with ACHN renal, over 100 µM; in the experiment on CCRF-CEM leukemia, over 100 µM. In addition, the TGI was over 100 µM in the experiment with TK-10 renal and 72.2 µM with MDA-MB-435.
